Test results published in ChEMBL document CHEMBL4823329, “Trisubstituted 1,3,5-Triazines: The First Ligands of the sY12-Binding Pocket on Chemokine CXCL12” (ACS Med Chem Lett, 2021).
pKd: −log10 of the molar value.

Each compound was assayed against Stromal cell-derived factor 1 (Homo sapiens, UniProt P48061) (assay: Binding affinity to wild type CXCL12 (unknown origin) by NMR spectroscopy). Conditions: not given; call rule not given here.
Chain of Stromal cell-derived factor 1 (P48061 whole entry): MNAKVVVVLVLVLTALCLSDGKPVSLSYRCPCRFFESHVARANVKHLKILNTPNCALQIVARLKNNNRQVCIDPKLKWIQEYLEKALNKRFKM

Row | Kd | Compound
1 | Not Active | O=C(O)CSc1nc(SCC(=O)O)nc(C2C3CC4CC(C3)CC2C4)n1 (stereo unspecified)
2 | Nd(Insoluble) | O=C(O)CSc1nc(SCC(=O)O)nc(-c2cnc3ccccc3c2)n1
3 | Nd(Insoluble) | O=C(O)CSc1nc(SCC(=O)O)nc(-c2ccc(-c3ccccc3)cc2)n1
4 | Nd(Insoluble) | O=C(O)c1ccc(Nc2nc(Nc3ccc(C(=O)O)cc3)nc(-c3ccccc3)n2)cc1
5 | Nd(Insoluble) | O=C(O)CSc1nc(SCC(=O)O)nc(-c2ccoc2)n1
6 | Nd(Insoluble) | O=C(O)CSc1nc(SCC(=O)O)nc(-c2ccc(Oc3ccccc3)cc2)n1
7 | Not Active | O=C(O)CSc1nc(SCC(=O)O)nc(-c2c3ccccc3cc3ccccc23)n1
8 | Nd(Insoluble) | O=C(O)CSc1nc(SCC(=O)O)nc(C2=CCCCC2)n1

Same assay, conditions: read-out: Kd

Row | Compound | pKd
9 | C[N+]1(c2nc(SCC(=O)O)nc(SCC(=O)O)n2)CCOCC1 | 2.52
10 | O=C(O)CSc1nc(SCC(=O)O)nc(N2CCOCC2)n1 | 3.63
11 | O=C(O)CSc1nc(SCC(=O)O)nc(-c2ccc(N3CCOCC3)cc2)n1 | 3.51
